Bounds are passed on as bounds.

The nature of data set [1]: Half-life in human liver microsomes (HLM). In kind it is in vitro ADME. The settings on record: pH 7.4, 1 μM compound, 0.78 mg/mL HLM, 37° C. Here is the method:
Test compounds (1 μM) are incubated with 3.3 mM MgCl2 and 0.78 mg/mL HLM (HL101) in 100 mM potassium phosphate buffer (pH 7.4) at 37° C. on the 96-deep well plate. The reaction mixture is split into two groups, a non-P450 and a P450 group. NADPH is only added to the reaction mixture of the P450 group. An aliquot of samples of P450 group is collected at 0, 10, 30, and 60 min time point, where 0 min time point indicated the time when NADPH is added into the reaction mixture of P450 group. An aliquot of samples of non-P450 group is collected at −10 and 65 min time point. Collected aliquots are extracted with acetonitrile solution containing an internal standard. The precipitated protein is spun down in centrifuge (2000 rpm, 15 min). The compound concentration in supernatant is measured by LC/MS/MS system.
The half-life value is obtained by plotting the natural logarithm of the peak area ratio of compounds/internal standard versus time. The slope of the line of best fit through the points yields the rate of metabolism (k). This is converted to a half-life value using following equations: […]

The target in data set [2] is T1, VR1 (Homo sapiens, UniProt Q8NER1). As to the kind of experiment: Acid stimulation assay (FDSS 6000). It counts as cell-based. The settings on record: final assay buffer pH5.8, 15 min pre-incubation. Here is the method:
The Acid-induced changes in the intracellular calcium concentration were monitored using FDSS 6000 (Hamamatsu Photonics, Japan), a fluorometric imaging system. The cell suspension in resting buffer (HBSS supplemented with 10 mM HEPES, pH 7.4) was pre-incubated with varying concentrations of the test compounds or resting buffer (buffer control) for 15 minutes at room temperature under dark conditions. The cells were automatically added the stimulating solution (HBSS supplemented with MES, final assay buffer pH5.8) by the FDSS 6000.
Target sequence in this assay (Q8NER1 whole entry, species assumed): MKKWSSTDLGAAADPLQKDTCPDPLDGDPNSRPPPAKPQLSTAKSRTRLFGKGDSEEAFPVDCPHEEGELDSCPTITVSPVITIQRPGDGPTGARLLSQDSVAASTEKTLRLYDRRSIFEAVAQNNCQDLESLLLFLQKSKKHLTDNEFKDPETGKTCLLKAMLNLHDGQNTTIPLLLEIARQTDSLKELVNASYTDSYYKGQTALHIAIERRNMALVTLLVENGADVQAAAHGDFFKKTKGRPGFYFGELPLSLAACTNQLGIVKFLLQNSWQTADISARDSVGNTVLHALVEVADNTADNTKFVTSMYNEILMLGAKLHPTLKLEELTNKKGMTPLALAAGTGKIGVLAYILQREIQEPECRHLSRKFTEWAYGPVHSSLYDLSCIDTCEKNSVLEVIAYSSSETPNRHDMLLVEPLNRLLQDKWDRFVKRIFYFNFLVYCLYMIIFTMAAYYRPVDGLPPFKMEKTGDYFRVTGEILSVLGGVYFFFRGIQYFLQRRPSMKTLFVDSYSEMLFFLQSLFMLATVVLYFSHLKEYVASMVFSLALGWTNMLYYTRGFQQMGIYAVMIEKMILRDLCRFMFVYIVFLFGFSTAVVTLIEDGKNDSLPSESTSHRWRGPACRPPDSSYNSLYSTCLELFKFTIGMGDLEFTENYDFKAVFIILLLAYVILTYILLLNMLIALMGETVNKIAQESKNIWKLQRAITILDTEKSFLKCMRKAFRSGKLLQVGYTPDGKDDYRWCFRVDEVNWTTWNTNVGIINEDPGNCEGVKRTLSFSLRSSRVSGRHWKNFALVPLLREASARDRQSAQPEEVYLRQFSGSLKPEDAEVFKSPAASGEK

Data set [3] can be described thus: Pharmacokinetic evaluation following intravenous and oral administration in rats. It counts as in vivo. The settings on record: male, Sprague-Dawley, plasma, rat; for bioavailability: AUCinf (PO)/AUCinf (IV), dose normalized, PO 5 mg/kg, read-out: Oral Bioavailability F (%); for clearance: non-compartmental analysis, read-out: In vivo Clearance (converted). Here is the method:
Male Sprague-Dawley rats are acclimatized for at least 24 hours prior to experiment initiation. During acclimation period, all animals receive food and water ad libitum. However, food but not water is removed from the animal's cages at least 12 hours before initiation of the experiment. During the first 3 hours of experimentation, the animals receive only water ad libitum. At least three animal each are tested for intravenous and oral dosage. For intravenous formulation, compounds were dissolved (0.25 to 1 mg/mL) in a mixture of 3% dimethyl sulfoxide, 40% PEG 400 and the rest percentage of 40% Captisol in water (w/v). For oral formulation, compounds of this invention are dissolved (2 mg/mL) in a mixture of 5% of 10% Tween 80 in water (v/v) and 95% of 0.5% methyl cellulose in water (w/v). The animals are weighed before dosing. The determined body weight is used to calculate the dose volume for each animal.
Dose volume(mL/kg)=1 mg/kg/formulation concentration(mg/mL)
In instances where the formulation concentrations were less than 0.5 mg/mL, the dosing volume is about 2 mL/kg. PO rats are typically dosed through oral gavage at 2.5 mL/kg to achieve a dose level of 5 mg/kg. For IV dosing, blood samples are collected (using a pre-heparinized syringe) via the jugular vein catheter at 2, 5, 15, 30, 60, 120, 180, 300, 480, and 1440 minutes post dosing. For PO dosing, blood samples are collected (using a pre-heparinized syringe) via the jugular vein catheter before dosing and at 5, 15, 30, 60, 120, 180, 300, 480, and 1440 minutes post dosing. About 250 uL of blood is obtained at each time point from the animal. Equal volumes of 0.9% normal saline are replaced to prevent dehydration. The whole blood samples are maintained on ice until centrifugation. Blood samples are then centrifuged at 14,000 rpm for 10 minutes at 4° C. and the upper plasma layer transferred into a clean vial and stored at −80° C. The resulting plasma samples are then analyzed by liquid chromatography-tandem mass spectrometry. Following the measurement of plasma samples and dosing solutions, plasma concentration-time curve is plotted. Plasma exposure is calculated as the area under the concentration-time curve extrapolated to time infinite (AUCinf). The AUCinf is averaged and the oral bioavailability (% F) for individual animal is calculated as:
AUCinf (PO)/AUCinf (IV), normalized to their respective dose levels. The % F is reported as the mean % F of all animals dosed orally with the compound of the invention at the specified level (Table 6).
In vivo clearance in the rat was calculated by conducting a non-compartmental analysis of the pharmacokinetic profile using WinNonlin software.

The target of data set [4] is T1, VR1. As to the kind of experiment: Calcium uptake assay, low pH (proton) agonist. It counts as cell-based. Further details: expressed in transfected cells; host or cells: T-REx HEK 293 (Invitrogen), pcDNA5/TO vector. The settings on record: HEK293; 0.3 μM compound; low pH (protons) as agonist; HEK 293 cells expressing hVR1; read-out: Low pH % Inhib. @ 0.3 μM.
Target sequence in this assay (Q8NER1 whole entry): as the sequence (Q8NER1 whole entry, species assumed) above
Data set [5] deals with T1, VR1. Kind of data set: Calcium uptake assay, capsaicin agonist (high throughput calcium imaging). It counts as cell-based. Also noted: expressed in transfected cells; host or cells: T-REx HEK 293 (Invitrogen), pcDNA5/TO vector. Particulars: 3 nM; FIGS. 2-6.
Target sequence in this assay (Q8NER1 whole entry): as the sequence (Q8NER1 whole entry, species assumed) above

For `Cc1cc(/C=C/C(F)(F)F)ccc1C(=O)Nc1cnc2cc(CO)cnc2c1` [Compound 317, (E)-N-(7-(Hydroxymethyl)-1,5-naphthyridin-3-yl)-2-methyl-4-(3,33-trifluoroprop-1-enyl)benzamide], the half-life – broadly, the time in which the quantity being followed falls by half – at 1 μM in data set [1] is 37.2 min. Moreover, half-maximal inhibition at VR1 [2] (IC50) was put at 11 nM. In data set [3], the bioavailability (usually dose-corrected exposure relative to a reference, in per cent) came out at 47% and the clearance is 16.5 mL/min/kg. Besides, on VR1 [4], the inhibition at 0.3 µM came to 100%.

As to `Cc1cc(/C=C/C(F)(F)F)ccc1C(=O)Nc1ccc2cc(COCCO)cnc2c1` [Compound 305, (E)-N-(3-((2-Hydroxyethoxy)methyl)quinolin-7-yl)-2-methyl-4-(3,3,3-trifluoroprop-1-enyl)benzamide], the half-life at 1 μM in data set [1] was 16.8 min. At VR1 [2], half-maximal inhibition (IC50) was put at 12 nM. For the same molecule, in data set [3], the bioavailability is above 100% and the clearance is 11.2 mL/min/kg. Moreover, at VR1 [4], the inhibition at 0.3 µM amounted to 105%.

In data set [1], `Cc1cc(/C=C/C(F)(F)F)ccc1C(=O)Nc1cnc2sc(CO)nc2c1` [Compound 413, (E)-N-(2-(hydroxymethyl)thiazolo[5,4-b]pyridin-6-yl)-2-methyl-4-(3,3,3-trifluoroprop-1-enyl)benzamide] showed a half-life at 1 μM of 193 min. For the same molecule, at VR1 [2], the 50% inhibitory concentration (IC50) – broadly, the concentration that inhibits the measured activity by half – turned out to be 4 nM. In addition, in data set [3], the bioavailability was above 100% and the clearance is 3.83 mL/min/kg. Also, at VR1 [4], the inhibition at 0.3 µM stood at 110%.

For `O=C(Nc1cccc2cnccc12)c1ccc(C#CC(F)(F)F)cc1` [Compound 45], the “inhibition of the Capsaicin induced intracellular calcium response” value at VR1 [5] is recorded as “significant inhibition”.

Consider `Cc1cc(/C=C/C(F)(F)F)ccc1C(=O)Nc1cccc2ccc(O)cc12` [Compound 302, (E)-N-(7-hydroxynaphthalen-1-yl)-2-methyl-4-(3,3,3-trifluoroprop-1-enyl)benzamide], for which the half-life at 1 μM in data set [1] is 36.6 min. The IC50 against VR1 [2] worked out at 1 nM. For the same molecule, in data set [3], the bioavailability was 2% and the clearance is 67.3 mL/min/kg.

As to `Cc1cc(/C=C/C(F)(F)F)ccc1C(=O)Nc1cnc2c(c1)OCC(CO)N2` (stereo not drawn) [Compound 233], in data set [3], the bioavailability amounted to 54% and the clearance was 33.3 mL/min/kg. Also, the “inhibition of the Capsaicin induced intracellular calcium response” value on VR1 [5] is “significant inhibition”.

The molecule `Cc1cc(/C=C/C(F)(F)F)ccc1C(=O)Nc1ccc2cc(C(O)CO)cnc2c1` (stereo not drawn) [Compound 308, (E)-N-(3-(1,2-dihydroxyethyl)quinolin-7-yl)-2-methyl-4-(3,3,3-trifluoroprop-1-enyl)benzamide] showed a half-life at 1 μM in data set [1] of 63 min. This molecule also yielded a half-inhibitory concentration (IC50) at VR1 [2] of 11 nM. Besides, in data set [3], the bioavailability came to 71% and the clearance is 12.2 mL/min/kg. Also, the inhibition at 0.3 µM at VR1 [4] came to 101%.

Regarding `Cc1cc(C#CC(C)(C)C)ccc1C(=O)Nc1ccc2c(c1)OCC(CO)N2` (stereo not drawn) [Compound 167], the “inhibition of the Capsaicin induced intracellular calcium response” value at VR1 [5] is given as “significant inhibition”.

For `Cc1nc2cc(NC(=O)c3ccc(/C=C/C(F)(F)F)cc3C)cnc2s1` [Compound 412, (E)-2-methyl-N-(2-methylthiazolo[5,4-b]pyridin-6-yl)-4-(3,3,3-trifluoroprop-1-enyl)benzamide], in data set [1], the half-life at 1 μM is 48.6 min. On VR1 [2], this molecule displayed a 50% inhibitory concentration (IC50) of 20 nM. Besides, in data set [3], the bioavailability was determined as 11% and the clearance is 7.17 mL/min/kg. The inhibition at 0.3 µM on VR1 [4] came to 105%.

For the molecule `Cc1cc(/C=C/C(F)(F)F)ccc1C(=O)Nc1cnc2cccnc2c1` [Compound 318, (E)-2-methyl-N-(1,5-naphthyridin-3-yl)-4-(3,3,3-trifluoroprop-1-enyl)benzamide], in data set [1], the half-life at 1 μM was 178 min. The molecule further came in with an IC50 against VR1 [2] of 3 nM. Moreover, in data set [3], the bioavailability came out at 59% and the clearance was 1.33 mL/min/kg. In addition, the inhibition at 0.3 µM at VR1 [4] amounted to 104%.

In the case of `Cc1cc(/C=C/C(F)(F)F)ccc1C(=O)Nc1cnc2ccccc2c1` [Compound 187, 2-Methyl-N-quinolin-3-yl-4-((E)-3,3,3-trifluoro-propenyl)-benzamide], in data set [3], the bioavailability amounted to 43% and the clearance was 1.83 mL/min/kg. Further, at VR1 [5], the “inhibition of the Capsaicin induced intracellular calcium response” value is given as “significant inhibition”.

In data set [1], `Cc1cc(/C=C/C(F)(F)F)ccc1C(=O)Nc1cnc2scnc2c1` [Compound 415, (E)-2-methyl-N-(thiazolo[5,4-b]pyridin-6-yl)-4-(3,3,3-trifluoroprop-1-enyl)benzamide] showed a half-life at 1 μM of 289 min. The 50% inhibitory concentration (IC50) against VR1 [2] turned out to be 8 nM. Moreover, in data set [3], the bioavailability worked out at 45% and the clearance is 0.833 mL/min/kg. On VR1 [4], the inhibition at 0.3 µM was 130%.

As to `Cc1cc(/C=C/C(F)(F)F)ccc1C(=O)Nc1cccc2c1CC(O)CC2` (racemic) [Compound 309, (E)-N-(7-hydroxy-5,6,7,8-tetrahydronaphthylen-1-yl)-2-methyl-4-(3,3,3-trifluoroprop-1-enyl)benzamide], in data set [1], the half-life at 1 μM was 135 min. The molecule further displayed an IC50 on VR1 [2] of 2 nM. In addition, in data set [3], the bioavailability was 29% and the clearance was 7.68 mL/min/kg. For the same molecule, on VR1 [4], the inhibition at 0.3 µM was found to be 107%.

`Cc1cc(/C=C/C(F)(F)F)ccc1C(=O)Nc1ccc2cc(C(C)O)cnc2c1` (stereo not drawn) [Compound 304, (E)-N-(3-(1-hydroxyethyl)quinolin-7-yl)-2-methyl-4-(3,3,3-trifluoroprop-1-enyl)benzamide] gave a half-life at 1 μM in data set [1] of 51 min. In addition, it took 4 nM to reach half-maximal inhibition against VR1 [2] (IC50). For the same molecule, in data set [3], the bioavailability was above 100% and the clearance was 20.6 mL/min/kg. For the same molecule, the inhibition at 0.3 µM at VR1 [4] was found to be 98%.

For `C/C(=C\C(F)(F)F)c1ccc(C(=O)Nc2ccc3c(c2)OCCN3)cc1` [Compound 96], at VR1 [5], the “inhibition of the Capsaicin induced intracellular calcium response” value is “significant inhibition”.

In data set [1], `Cc1cc(/C=C/C(F)(F)F)ccc1C(=O)Nc1ccc2cc(C(C)(C)O)cnc2c1` [Compound 303, (E)-N-(3-(2-Hydroxypropan-2-yl)quinolin-7-yl)-2-methyl-4-(3,3,3-trifluoroprop-1-enyl)benzamide] had a half-life at 1 μM of 57.6 min. At VR1 [2], this molecule had a 50% inhibitory concentration (IC50) of 37 nM. In data set [3], the bioavailability was above 100% and the clearance was 11.3 mL/min/kg. Moreover, the inhibition at 0.3 µM on VR1 [4] was found to be 90%.

The values above are taken from US20100004222A1, “Amide Derivatives as Ion-Channel Ligands and Pharmaceutical Compositions and Methods of Using the Same” (Renovis, Inc., priority 2006, published 2010).
